Experimental data reported in patent US8722683B2, “Benzodioxole piperazine compounds” (Hoffmann LA-Roche Inc., priority 2011, dated 2014).

Assays:
D2 receptor = D2 receptor (Homo sapiens (Human), UniProt P14416); assay: Radioligand binding ([3H]-spiperone) to cloned D2 receptor expressed in HEK-293 EBNA cells; details: HEK293 EBNA membranes, 0.7 nM [3H]-spiperone
Experimental: (§1) HEK293 EBNA cells were transiently transfected with expression plasmids encoding for the human D2 or D3 or for the human 5-HT2A receptor, respectively. The cells were harvested 48 h post-transfection, washed three times with cold PBS and stored at −80° C. prior to use. The pellet was suspended in cold 50 mM Tris-HCl buffer containing 10 mM EDTA (pH 7.4) and was homogenized with a Polytron (Kinematica AG, Basel, Switzerland) for 20-30 sec at 12.000 rpm. After centrifugation at 48.000×g for 30 min at 4° C., the pellet was resuspended in cold 10 mM Tris-HCl buffer containing 0.1 mM EDTA (pH 7.4), homogenized, and centrifuged as above. This pellet was further resuspended in a smaller volume of ice cold 10 mM Tris-HCl buffer containing 0.1 mM EDTA (pH 7.4) and homogenized with a Polytron for 20-30 sec at 12.000 rpm. The protein content of this homogenate was determined with the Bio-Rad (Bradford) Protein Assay (Biorad Laboratories GmbH, München, Germany) according to the instructions of the manufacturer using gamma globulin as the standard. This homogenate was stored at −80° C. in aliquots and thawed immediately prior to use.
(§2) Radioligand Binding Assay
(§3) Aliquots of membrane preparations were thawed at RT, resupended in assay buffer (D2, D3: 50 mM Tris-HCl, 120 mM NaCl, 5 mM MgCl2, 1 mM EDTA, 5 mM KCl, 1.5 mM CaCl2, pH=7.4; 5-HT2A: 50 mM Tris-HCl, 10 mM MgCl2, 1 mM EGTA, pH=7.4), homogenized with a Polytron for 20-30 sec at 12.000 rpm and adjusted to a final concentration of approximately 7.5 μg protein/well (D2, D3) and 15 μg protein/well (5-HT2A), respectively.
The binding affinity (Ki) of the compounds was determined using radioligand binding. […] The nonspecific binding was determined with equally composed reaction mixtures in the presence of 10 μM unlabelled spiperone. Per well 45 μl of Microscint 40 (Perkin Elmer, Schwerzenbach, Switzerland) was added, plates for sealed, shaken for 20 min and counted for 3 min on a Topcount Microplate Scintillation Counter (Canberra Packard SA, Zürich, Switzerland) with quenching correction.
(§4) The CPM value for each duplicate of a concentration of competing compound was averaged (y1), then the % specific binding was calculated according to the equation (((y1−non-specific)/(total binding−non-specific))×100). Graphs were plotted with the % specific binding using XLfit, a curve fitting program that iteratively plots the data using Levenberg-Marquardt algorithm. The single site competition analysis equation used was y=A+((B−A)/(1+((x/C)D))), where y is the % specific binding, A is the minimum y, B is the maximum y, C is the IC50, x is the log 10 of the concentration of the competing compound and D is the slope of the curve (the Hill Coefficient). […] The affinity constant (Ki) was calculated using the Cheng-Prusoff equation Ki=(IC50/1+([L]/Kd), where [L] is the concentration of radioligand and Kd is the dissociation constant of the radioligand at the receptor as determined by the saturation isotherm.

D3 receptor = D3 receptor (Homo sapiens (Human), UniProt P35462); assay: Radioligand binding ([3H]-spiperone) to cloned D3 receptor expressed in HEK-293 EBNA cells; details: HEK293 EBNA membranes, 0.5 nM [3H]-spiperone
Experimental: as §1, §2, §3
The binding affinity (Ki) of the compounds was determined using radioligand binding. […] At the end of the incubation, the reaction mixtures were filtered on to unifilter 96-well white microplates with bonded GF/C filters (Packard BioScience, Zürich, Switzerland; preincubated for 1 h in 0.1% polyethylenimine (PEI) in assay buffer) with a Filtermate 196 harvester (Packard BioScience) and washed 3 times with cold assay buffer. The nonspecific binding was determined with equally composed reaction mixtures in the presence of 10 μM unlabelled spiperone. Per well 45 μl of Microscint 40 (Perkin Elmer, Schwerzenbach, Switzerland) was added, plates for sealed, shaken for 20 min and counted for 3 min on a Topcount Microplate Scintillation Counter (Canberra Packard SA, Zürich, Switzerland) with quenching correction.
as §4

D2 receptor, sequence (P14416 whole entry): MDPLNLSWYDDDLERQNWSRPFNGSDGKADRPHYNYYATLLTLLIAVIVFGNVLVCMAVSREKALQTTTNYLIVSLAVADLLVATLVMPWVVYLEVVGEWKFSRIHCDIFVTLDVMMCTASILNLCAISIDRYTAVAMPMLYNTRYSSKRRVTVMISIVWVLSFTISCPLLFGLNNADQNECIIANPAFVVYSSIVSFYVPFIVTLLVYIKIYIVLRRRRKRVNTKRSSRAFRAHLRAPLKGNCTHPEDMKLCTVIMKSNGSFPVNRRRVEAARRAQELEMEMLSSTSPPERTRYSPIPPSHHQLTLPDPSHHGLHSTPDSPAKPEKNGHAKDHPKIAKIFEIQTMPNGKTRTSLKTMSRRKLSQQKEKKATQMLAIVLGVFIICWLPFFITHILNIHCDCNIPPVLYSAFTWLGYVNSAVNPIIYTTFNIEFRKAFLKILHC
D3 receptor, sequence (P35462 whole entry): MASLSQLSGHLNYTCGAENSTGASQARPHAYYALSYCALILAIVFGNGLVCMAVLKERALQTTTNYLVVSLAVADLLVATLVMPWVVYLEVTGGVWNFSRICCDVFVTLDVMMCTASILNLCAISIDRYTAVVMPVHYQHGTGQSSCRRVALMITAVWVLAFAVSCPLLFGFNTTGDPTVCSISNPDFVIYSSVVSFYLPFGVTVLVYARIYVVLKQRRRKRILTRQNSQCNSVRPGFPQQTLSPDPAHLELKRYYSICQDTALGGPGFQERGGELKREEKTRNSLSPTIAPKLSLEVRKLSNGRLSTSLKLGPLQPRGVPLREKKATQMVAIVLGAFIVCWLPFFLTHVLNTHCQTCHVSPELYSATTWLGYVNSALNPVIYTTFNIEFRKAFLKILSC

Row | SMILES | Ki (D2 receptor) | Ki (D3 receptor)
1 | O=C(C[C@@H]1CCCCO1)N[C@H]1CC[C@H](CCN2CCN(c3cccc4c3OCO4)CC2)CC1 (single isomer, unassigned) [Example 30, Trans-N-{4-[2-(4-Benzo[1,3]dioxol-4-yl-piperazin-1-yl)-ethyl]-cyclohexyl}-2-(S) or (R)-tetrahydro-pyran-2-yl-acetamide] | 220 nM | 
2 | O=C(C[C@H]1CCCCO1)N[C@H]1CC[C@H](CCN2CCN(c3cccc4c3OCO4)CC2)CC1 (single isomer, unassigned) [Example 31, Trans-N-{4-[2-(4-Benzo[1,3]dioxol-4-yl-piperazin-1-yl)-ethyl]-cyclohexyl}-2-(R) or (S)-tetrahydro-pyran-2-yl-acetamide] | 310 nM | 
3 | COC(C)C(=O)N[C@H]1CC[C@H](CCN2CCN(c3cccc4c3OCO4)CC2)CC1 (stereo in doubt) [Example 25, Trans(S)—N-{4-[2-(4-Benzo[1,3]dioxol-4-yl-piperazin-1-yl)-ethyl]-cyclohexyl}-2-methoxy-propionamide] | 250 nM | 21.4 nM
4 | COC(C)C(=O)N[C@H]1CC[C@H](CCN2CCN(c3cccc4c3OCO4)CC2)CC1 (stereo in doubt) [Example 26, Trans(R)—N-{4-[2-(4-Benzo[1,3]dioxol-4-yl-piperazin-1-yl)-ethyl]-cyclohexyl}-2-methoxy-propionamide] | 150 nM | 4.9 nM
5 | CC(=O)N[C@H]1CC[C@H](CCN2CCN(c3cccc4c3OCO4)CC2)CC1 [Example 1, Trans-N-{4-[2-(4-Benzo[1,3]dioxol-4-yl-piperazin-1-yl)-ethyl]-cyclohexyl}-acetamide] | 67.3 nM | 1.15 nM
6 | COCCC(=O)N[C@H]1CC[C@H](CCN2CCN(c3cccc4c3OCO4)CC2)CC1 [Example 2, Trans-N-{4-[2-(4-Benzo[1,3]dioxol-4-yl-piperazin-1-yl)-ethyl]-cyclohexyl}-3-methoxy-propionamide] | 173 nM | 1.88 nM
7 | O=C(CC1CCCO1)N[C@H]1CC[C@H](CCN2CCN(c3cccc4c3OCO4)CC2)CC1 (stereo partly drawn) [Example 6, Trans-N-{4-[2-(4-Benzo[1,3]dioxol-4-yl-piperazin-1-yl)-ethyl]-cyclohexyl}-2-(tetrahydro-furan-2-yl)-acetamide] | 189 nM | 3.1 nM
8 | CCC(=O)N[C@H]1CC[C@H](CCN2CCN(c3cccc4c3OCO4)CC2)CC1 [Example 7, Trans-N-{4-[2-(4-Benzo[1,3]dioxol-4-yl-piperazin-1-yl)-ethyl]-cyclohexyl}-propionamide] | 74.5 nM | 1.28 nM
9 | O=C(CC1CC1)N[C@H]1CC[C@H](CCN2CCN(c3cccc4c3OCO4)CC2)CC1 [Example 8, Trans-N-{4-[2-(4-Benzo[1,3]dioxol-4-yl-piperazin-1-yl)-ethyl]-cyclohexyl}-2-cyclopropyl-acetamide] | 142 nM | 1.23 nM
10 | COCC(=O)N[C@H]1CC[C@H](CCN2CCN(c3cccc4c3OCO4)CC2)CC1 [Example 9, Trans-N-{4-[2-(4-Benzo[1,3]dioxol-4-yl-piperazin-1-yl)-ethyl]-cyclohexyl}-2-methoxy-acetamide] | 238 nM | 4.37 nM
11 | O=C(CO)N[C@H]1CC[C@H](CCN2CCN(c3cccc4c3OCO4)CC2)CC1 [Example 10, Trans-N-{4-[2-(4-Benzo[1,3]dioxol-4-yl-piperazin-1-yl)-ethyl]-cyclohexyl}-2-hydroxy-acetamide] | 184 nM | 1.69 nM
12 | O=C(N[C@H]1CC[C@H](CCN2CCN(c3cccc4c3OCO4)CC2)CC1)c1ccccc1 [Example 11, Trans-N-{4-[2-(4-Benzo[1,3]dioxol-4-yl-piperazin-1-yl)-ethyl]-cyclohexyl}-benzamide] | 269 nM | 9.99 nM
13 | COC(=O)N[C@H]1CC[C@H](CCN2CCN(c3cccc4c3OCO4)CC2)CC1 [Example 12, Trans-{4-[2-(4-Benzo[1,3]dioxol-4-yl-piperazin-1-yl)-ethyl]-cyclohexyl}-carbamic acid methyl ester] | 68.5 nM | 1.29 nM
14 | Cc1cc(CC(=O)N[C@H]2CC[C@H](CCN3CCN(c4cccc5c4OCO5)CC3)CC2)on1 [Example 13, Trans-N-{4-[2-(4-Benzo[1,3]dioxol-4-yl-piperazin-1-yl)-ethyl]-cyclohexyl}-2-(3-methyl-isoxazol-5-yl)-acetamide] | 314 nM | 1.34 nM
15 | N#CCC(=O)N[C@H]1CC[C@H](CCN2CCN(c3cccc4c3OCO4)CC2)CC1 [Example 14, Trans-N-{4-[2-(4-Benzo[1,3]dioxol-4-yl-piperazin-1-yl)-ethyl]-cyclohexyl}-2-cyano-acetamide] | 76 nM | 0.91 nM
16 | O=C(CC1(O)CCCCC1)N[C@H]1CC[C@H](CCN2CCN(c3cccc4c3OCO4)CC2)CC1 [Example 15, Trans-N-{4-[2-(4-Benzo[1,3]dioxol-4-yl-piperazin-1-yl)-ethyl]-cyclohexyl}-2-(1-hydroxy-cyclohexyl)-acetamide] | 160 nM | 3.48 nM
17 | O=C(CC(F)(F)F)N[C@H]1CC[C@H](CCN2CCN(c3cccc4c3OCO4)CC2)CC1 [Example 16, Trans-N-{4-[2-(4-Benzo[1,3]dioxol-4-yl-piperazin-1-yl)-ethyl]-cyclohexyl}-3,3,3-trifluoro-propionamide] | 91.2 nM | 1.57 nM
18 | CC(C)C(=O)N[C@H]1CC[C@H](CCN2CCN(c3cccc4c3OCO4)CC2)CC1 [Example 17, Trans-N-{4-[2-(4-Benzo[1,3]dioxol-4-yl-piperazin-1-yl)-ethyl]-cyclohexyl}-isobutyramide] | 137 nM | 1.81 nM
19 | CC(C)CC(=O)N[C@H]1CC[C@H](CCN2CCN(c3cccc4c3OCO4)CC2)CC1 [Example 18, Trans-N-{4-[2-(4-Benzo[1,3]dioxol-4-yl-piperazin-1-yl)-ethyl]-cyclohexyl}-3-methyl-butyramide] | 133 nM | 2.28 nM
20 | O=C(N[C@H]1CC[C@H](CCN2CCN(c3cccc4c3OCO4)CC2)CC1)C1(O)CCC1 [Example 35, 1-Hydroxy-cyclobutanecarboxylic acid-trans-N-{4-[2-(4-benzo[1,3]dioxol-4-yl-piperazin-1-yl)-ethyl]-cyclohexyl}-amide] | 84.9 nM | 
21 | O=C(N[C@H]1CC[C@H](CCN2CCN(c3cccc4c3OCO4)CC2)CC1)C1CCCO1 (stereo partly drawn) [Example 44, Tetrahydro-furan-2-carboxylic acid-trans-N-{4-[2-(4-benzo[1,3]dioxol-4-yl-piperazin-1-yl)-ethyl]-cyclohexyl}-amide] | 117 nM | 
22 | CO[C@H]1CC[C@H](CC(=O)N[C@H]2CC[C@H](CCN3CCN(c4cccc5c4OCO5)CC3)CC2)CC1 [Example 56, Trans-N-{4-[2-(4-Benzo[1,3]dioxol-4-yl-piperazin-1-yl)-ethyl]-cyclohexyl}-2-(4-methoxy-cyclohexyl)-acetamide] |  | 3.37 nM
23 | O=S(=O)(N[C@H]1CC[C@H](CCN2CCN(c3cccc4c3OCO4)CC2)CC1)c1ccccc1 [Example 67, N-trans-{4-[2-(4-Benzo[1,3]dioxol-4-yl-piperazin-1-yl)-ethyl]-cyclohexyl}-benzenesulfonamide] |  | 2.88 nM
24 | Cn1cnc(S(=O)(=O)N[C@H]2CC[C@H](CCN3CCN(c4cccc5c4OCO5)CC3)CC2)c1 [Example 69, 1-Methyl-1H-imidazole-4-sulfonic acid-trans-N-{4-[2-(4-benzo[1,3]dioxol-4-yl-piperazin-1-yl)-ethyl]-cyclohexyl}-amide] |  | 2.25 nM
